Experimental data taken from PubChem BioAssay (NCI).
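Dose response: 5 concentrations. Exposure: 48 h. Format: 96-well plates. Endpoint: linear interpolation; highest concentration if not reached. GI50 marks 50% less growth. TGI: total growth inhibition.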

Tests used:
Test in all cases: inhibition of tumour cell growth, NCI panel, 48 h
HL-60(TB) leukemia = system: HL-60(TB) leukemia
LOX IMVI melanoma = system: LOX IMVI melanoma
NCI-H460 lung = system: NCI-H460 lung
OVCAR-8 ovarian = system: OVCAR-8 ovarian
COLO 205 colon = system: COLO 205 colon
K-562 leukemia = system: K-562 leukemia
SN12C renal = system: SN12C renal
SK-MEL-28 melanoma = system: SK-MEL-28 melanoma
SK-MEL-5 melanoma = system: SK-MEL-5 melanoma
M14 melanoma = system: M14 melanoma
EKVX NSCLC = system: EKVX NSCLC
CAKI-1 renal = system: CAKI-1 renal
NCI-H522 lung = system: NCI-H522 lung
SNB-75 CNS = system: SNB-75 CNS
SK-MEL-2 melanoma = system: SK-MEL-2 melanoma
SNB-19 CNS = system: SNB-19 CNS
786-0 renal = system: 786-0 renal
U251 CNS = system: U251 CNS
MCF7 breast = system: MCF7 breast
A549 NSCLC = system: A549 NSCLC
MDA-MB-231 breast = system: MDA-MB-231 breast
UO-31 renal = system: UO-31 renal
RXF 393 renal = system: RXF 393 renal
PC-3 prostate = system: PC-3 prostate
A498 renal = system: A498 renal
MOLT-4 leukemia = system: MOLT-4 leukemia
HS 578T breast = system: HS 578T breast
OVCAR-3 ovarian = system: OVCAR-3 ovarian

## Cc1ncn(-c2ccc(/C=N/Nc3ccnc4cc(Cl)ccc34)cc2)c1C
HL-60(TB) leukemia
  GI50: 1560 nM
  TGI: 3770 nM
LOX IMVI melanoma
  GI50: 2190 nM
  TGI: 3980 nM
NCI-H460 lung
  GI50: 1780 nM
  TGI: 3570 nM
OVCAR-8 ovarian
  GI50: 1870 nM
  TGI: 3670 nM
COLO 205 colon
  GI50: 1740 nM
  TGI: 3280 nM
K-562 leukemia
  GI50: 2070 nM
  TGI: 8070 nM
SN12C renal
  GI50: 1750 nM
  TGI: 3470 nM
SK-MEL-28 melanoma
  GI50: 1650 nM
  TGI: 3090 nM
SK-MEL-5 melanoma
  GI50: 2070 nM
  TGI: 4380 nM
M14 melanoma
  GI50: 1810 nM
  TGI: 3480 nM
EKVX NSCLC
  GI50: 3450 nM
  TGI: 18000 nM
CAKI-1 renal
  GI50: 1630 nM
  TGI: 2990 nM
NCI-H522 lung
  GI50: 1800 nM
  TGI: 3390 nM
SNB-75 CNS
  GI50: 1510 nM
  TGI: 2890 nM
SK-MEL-2 melanoma
  GI50: 1730 nM
  TGI: 3220 nM
SNB-19 CNS
  GI50: 1880 nM
  TGI: 3880 nM
786-0 renal
  GI50: 1610 nM
  TGI: 3250 nM
U251 CNS
  GI50: 1590 nM
  TGI: 2990 nM
MCF7 breast
  GI50: 1540 nM
  TGI: 3410 nM
A549 NSCLC
  GI50: 1700 nM
  TGI: 3160 nM
MDA-MB-231 breast
  GI50: 2080 nM
  TGI: 3840 nM
UO-31 renal
  GI50: 1640 nM
  TGI: 3030 nM
RXF 393 renal
  GI50: 1460 nM
  TGI: 2870 nM
PC-3 prostate
  GI50: 1720 nM
  TGI: 3370 nM
A498 renal
  GI50: 6490 nM
  TGI: 20200 nM
MOLT-4 leukemia
  GI50: 1940 nM
  TGI: 5120 nM
HS 578T breast
  GI50: 2010 nM
  TGI: 4480 nM
OVCAR-3 ovarian
  GI50: 1830 nM
